Experimental data: ChEMBL document CHEMBL5390204, “Persephacin Is a Broad-Spectrum Antifungal Aureobasidin Metabolite That Overcomes Intrinsic Resistance in Aspergillus fumigatus” (J Nat Prod, 2023)
Converted amounts (≈) assume the structure as drawn.

Columns and labels:
Candida tropicalis [1] = experiment: Antifungal activity against Candida tropicalis 13 assessed as inhibition in fungal growth incubated for 48 hrs by microplate reader analysis; format: functional
Nakaseomyces glabratus [2] = experiment: Antifungal activity against Candida glabrata 2 assessed as inhibition in fungal growth incubated for 48 hrs by microplate reader analysis; format: functional
Cryptococcus neoformans [3] = experiment: Antifungal activity against Cryptococcus neoformans H99 assessed as inhibition in fungal growth incubated for 48 hrs in presence of 10% serum by microplate reader analysis; format: functional
Candida parapsilosis [4] = experiment: Antifungal activity against Candida parapsilosis 9 assessed as inhibition in fungal growth incubated for 48 hrs by microplate reader analysis; format: functional; details: Lodderomyces parapsilosis
Nakaseomyces glabratus [5] = experiment: Antifungal activity against Candida glabrata 22 assessed as inhibition in fungal growth incubated for 48 hrs by microplate reader analysis; format: functional
Paecilomyces lilacinus [6] = experiment: Antifungal activity against Paecilomyces lilacinus 165E10 assessed as reduction in fungal viability incubated for 48 hrs by microplate reader analysis; format: functional, Purpureocillium lilacinum
Candida duobushaemulonii [7] = experiment: Antifungal activity against multidrug-resistant Candida duobushaemulonii 394 assessed as inhibition in fungal growth incubated for 48 hrs by microplate reader analysis; format: functional; details: Candidozyma duobushaemuli
Candida albicans [8] = experiment: Antifungal activity against Candida albicans SC5314 assessed as reduction in fungal viability incubated for 48 hrs by microplate reader analysis; format: functional
Candida duobushaemulonii [9] = experiment: Antifungal activity against multidrug-resistant Candida duobushaemulonii 391 assessed as inhibition in fungal growth incubated for 48 hrs by microplate reader analysis; format: functional; details: Candidozyma duobushaemuli
Aspergillus flavus [10] = experiment: Antifungal activity against Aspergillus flavus NRRL485 assessed as reduction in fungal viability incubated for 48 hrs by microplate reader analysis; format: functional
Rhizopus arrhizus [11] = experiment: Antifungal activity against Rhizopus oryzae FGSC 9543 assessed as reduction in fungal viability incubated for 48 hrs by microplate reader analysis; format: functional
Aspergillus fumigatus [12] = experiment: Antifungal activity against Aspergillus fumigatus NRRL5109 assessed as reduction in fungal viability incubated for 48 hrs by microplate reader analysis; format: functional
[Candida] auris [13] = Antifungal activity against multidrug-resistant Candida auris 384 assessed as inhibition in fungal growth incubated for 48 hrs by microplate reader analysis; format: functional; details: Candidozyma auris
Candida tropicalis [14] = experiment: Antifungal activity against Candida tropicalis ATCC750 (Y-12699) assessed as reduction in fungal viability incubated for 48 hrs by microplate reader analysis; format: functional
Candida albicans [15] = experiment: Antifungal activity against Candida albicans SC5314 assessed as inhibition in fungal growth incubated for 48 hrs in presence of 5% serum by microplate reader analysis; format: functional
Candida albicans [16] = experiment: Antifungal activity against Candida albicans SC5314 assessed as reduction in fungal growth incubated for 48 hrs by microplate reader analysis; format: functional
[Candida] auris [17] = Antifungal activity against multidrug-resistant Candida auris 388 assessed as inhibition in fungal growth incubated for 48 hrs by microplate reader analysis; format: functional; details: Candidozyma auris
[Candida] auris [18] = Antifungal activity against multidrug-resistant Candida auris 387 assessed as inhibition in fungal growth incubated for 48 hrs by microplate reader analysis; format: functional; details: Candidozyma auris
Mucor circinelloides [19] = experiment: Antifungal activity against Mucor circinelloides 235C7 assessed as reduction in fungal viability incubated for 48 hrs by microplate reader analysis; format: functional
Candida albicans [20] = experiment: Antifungal activity against Candida albicans 3 assessed as inhibition in fungal growth incubated for 48 hrs by microplate reader analysis; format: functional
Mucor circinelloides [21] = experiment: Antifungal activity against Mucor circinelloides 235C7 assessed as reduction in fungal growth incubated for 48 hrs by microplate reader analysis; format: functional
[Candida] auris [22] = Antifungal activity against multidrug-resistant Candida auris 383 assessed as inhibition in fungal growth incubated for 48 hrs by microplate reader analysis; format: functional; details: Candidozyma auris
Candida albicans [23] = experiment: Antifungal activity against Candida albicans 8 assessed as inhibition in fungal growth incubated for 48 hrs by microplate reader analysis; format: functional
Hamigera insecticola = experiment: Antifungal activity against Hamigera insecticola NRRL35442 assessed as reduction in fungal growth incubated for 48 hrs by microplate reader analysis; format: functional
Rhizopus arrhizus [24] = experiment: Antifungal activity against Rhizopus oryzae FGSC 9543 assessed as reduction in fungal growth incubated for 48 hrs by microplate reader analysis; format: functional
Aspergillus fumigatus [25] = experiment: Antifungal activity against Aspergillus fumigatus NRRL5109 assessed as reduction in fungal growth incubated for 48 hrs by microplate reader analysis; format: functional
[Candida] auris [26] = Antifungal activity against multidrug-resistant Candida auris 382 assessed as inhibition in fungal growth incubated for 48 hrs by microplate reader analysis; format: functional; details: Candidozyma auris
Aspergillus fumigatus [27] = experiment: Antifungal activity against Aspergillus fumigatus ATCC MYA-3627 assessed as inhibition in fungal growth incubated for 48 hrs in presence of 0% serum by microplate reader analysis; format: functional
Candida tropicalis [28] = experiment: Antifungal activity against Candida tropicalis ATCC750 (Y-12699) assessed as reduction in fungal growth incubated for 48 hrs by microplate reader analysis; format: functional
Pichia kudriavzevii = experiment: Antifungal activity against Candida krusei ATCC 6258 (Y-7179) assessed as reduction in fungal growth incubated for 48 hrs by microplate reader analysis; format: functional
Paecilomyces lilacinus [29] = experiment: Antifungal activity against Paecilomyces lilacinus 165E10 assessed as reduction in fungal growth incubated for 48 hrs by microplate reader analysis; format: functional; details: Purpureocillium lilacinum
Fusarium solani = experiment: Antifungal activity against Fusarium solani 243G2 assessed as reduction in fungal viability incubated for 48 hrs by microplate reader analysis; format: functional
Candida parapsilosis [30] = experiment: Antifungal activity against Candida parapsilosis 28 assessed as inhibition in fungal growth incubated for 48 hrs by microplate reader analysis; format: functional; details: Lodderomyces parapsilosis
[Candida] auris [31] = Antifungal activity against multidrug-resistant Candida auris 390 assessed as inhibition in fungal growth incubated for 48 hrs by microplate reader analysis; format: functional; details: Candidozyma auris
Aspergillus fumigatus [32] = experiment: Antifungal activity against Aspergillus fumigatus NRRL6113 assessed as reduction in fungal growth incubated for 48 hrs by microplate reader analysis; format: functional
Candida parapsilosis [33] = experiment: Antifungal activity against Candida parapsilosis 7 assessed as inhibition in fungal growth incubated for 48 hrs by microplate reader analysis; format: functional; details: Lodderomyces parapsilosis
Candida albicans [34] = experiment: Antifungal activity against Candida albicans SC5314 assessed as inhibition in fungal growth incubated for 48 hrs in presence of 0% serum by microplate reader analysis; format: functional
Nakaseomyces glabratus [35] = experiment: Antifungal activity against Candida glabrata 17 assessed as inhibition in fungal growth incubated for 48 hrs by microplate reader analysis; format: functional
Cryptococcus neoformans [36] = experiment: Antifungal activity against Cryptococcus neoformans H99 assessed as inhibition in fungal growth incubated for 48 hrs in presence of 0% serum by microplate reader analysis; format: functional
Clavispora lusitaniae = experiment: Antifungal activity against multidrug-resistant Candida lusitaniae 398 assessed as inhibition in fungal growth incubated for 48 hrs by microplate reader analysis; format: functional
Aspergillus flavus [37] = experiment: Antifungal activity against Aspergillus flavus NRRL485 assessed as reduction in fungal growth incubated for 48 hrs by microplate reader analysis; format: functional
Candida parapsilosis [38] = experiment: Antifungal activity against Candida parapsilosis 18 assessed as inhibition in fungal growth incubated for 48 hrs by microplate reader analysis; format: functional; details: Lodderomyces parapsilosis
Aspergillus fumigatus [39] = experiment: Antifungal activity against Aspergillus fumigatus MYA 3627 assessed as reduction in fungal viability incubated for 48 hrs by microplate reader analysis; format: functional

For `C[C@@H]1[C@H](O)[C@@H](C)/C=C/C=C/C=C/C=C/C=C/C=C/C=C/[C@H](O[C@@H]2O[C@H](C)[C@@H](O)[C@H](N)[C@@H]2O)C[C@@H]2O[C@](O)(C[C@@H](O)C[C@@H](O)[C@H](O)CC[C@@H](O)C[C@@H](O)CC(=O)O[C@H]1C)C[C@H](O)[C@H]2C(=O)O` [AMPHOTERICIN B], the MIC80 (Candida tropicalis [1]) was 0.2 µM (≈ 0.185 µg/mL), the MIC80 (Nakaseomyces glabratus [2]) was 0.3 µM (≈ 0.277 µg/mL) and the MIC80 (Cryptococcus neoformans [3]) was < 0.2 µM. For the same compound, the MIC80 (Candida parapsilosis [4]) was 2.5 µM (≈ 2.31 µg/mL), the MIC80 (Nakaseomyces glabratus [5]) was 0.3 µM (≈ 0.277 µg/mL) and the “MFC<=99.9” value (Paecilomyces lilacinus [6]) was >10 µM. For the same compound, the MIC80 (Candida duobushaemulonii [7]) was 5 µM (≈ 4.62 µg/mL), the “MFC<=99.9” value (Candida albicans [8]) was 2.5 µM (≈ 2.31 µg/mL) and the MIC80 (Candida duobushaemulonii [9]) was 5 µM (≈ 4.62 µg/mL). The “MFC<=99.9” value (Aspergillus flavus [10]) was 10 µM (≈ 9.24 µg/mL), the “MFC<=99.9” value (Rhizopus arrhizus [11]) was 0.3 µM (≈ 0.277 µg/mL) and the “MFC<=99.9” value (Aspergillus fumigatus [12]) was 5 µM (≈ 4.62 µg/mL). The MIC80 ([Candida] auris [13]) was 2.5 µM (≈ 2.31 µg/mL), the “MFC<=99.9” value (Candida tropicalis [14]) was 2.5 µM (≈ 2.31 µg/mL) and the MIC80 (Candida albicans [15]) was < 0.2 µM. The MFC (Candida albicans [16]) was 2.5 µM (≈ 2.31 µg/mL), the MIC80 (Candida albicans [16]) was 0.6 µM (≈ 0.554 µg/mL) and the MIC80 ([Candida] auris [17]) was 2.5 µM (≈ 2.31 µg/mL). The MIC80 ([Candida] auris [18]) was 2.5 µM (≈ 2.31 µg/mL), the “MFC<=99.9” value (Mucor circinelloides [19]) was 1.3 µM (≈ 1.2 µg/mL) and the MIC80 (Candida albicans [20]) was 0.6 µM (≈ 0.554 µg/mL). The MFC (Mucor circinelloides [21]) was 1.3 µM (≈ 1.2 µg/mL), the MIC80 (Mucor circinelloides [21]) was 1.3 µM (≈ 1.2 µg/mL) and the MIC80 ([Candida] auris [22]) was 2.5 µM (≈ 2.31 µg/mL). It also gave an MIC80 (Candida albicans [23]) of 0.6 µM (≈ 0.554 µg/mL), an MFC (Hamigera insecticola) of 10 µM (≈ 9.24 µg/mL) and an MIC80 (Hamigera insecticola) of 2.5 µM (≈ 2.31 µg/mL). It also gave an MFC (Rhizopus arrhizus [24]) of 0.3 µM (≈ 0.277 µg/mL), an MIC80 (Rhizopus arrhizus [24]) of 0.3 µM (≈ 0.277 µg/mL) and an MFC (Aspergillus fumigatus [25]) of 5 µM (≈ 4.62 µg/mL). For the same compound, the MIC80 (Aspergillus fumigatus [25]) was 2.5 µM (≈ 2.31 µg/mL), the MIC80 ([Candida] auris [26]) was 1.3 µM (≈ 1.2 µg/mL) and the MIC80 (Aspergillus fumigatus [27]) was 2.5 µM. It also gave an MFC (Candida tropicalis [28]) of 2.5 µM (≈ 2.31 µg/mL), an MIC80 (Candida tropicalis [28]) of 1.3 µM (≈ 1.2 µg/mL) and an MFC (Pichia kudriavzevii) of 5 µM (≈ 4.62 µg/mL). The MIC80 (Pichia kudriavzevii) was 2.5 µM (≈ 2.31 µg/mL), the MFC (Paecilomyces lilacinus [29]) was > 10 µM and the MIC80 (Paecilomyces lilacinus [29]) was > 10 µM. The “MFC<=99.9” value (Fusarium solani) was 1.3 µM (≈ 1.2 µg/mL), the MIC80 (Candida parapsilosis [30]) was 1.3 µM (≈ 1.2 µg/mL) and the MIC80 ([Candida] auris [31]) was 2.5 µM (≈ 2.31 µg/mL). It also gave an MFC (Aspergillus fumigatus [32]) of 10 µM (≈ 9.24 µg/mL), an MIC80 (Aspergillus fumigatus [32]) of 2.5 µM (≈ 2.31 µg/mL) and an MIC80 (Candida parapsilosis [33]) of 2.5 µM (≈ 2.31 µg/mL). It also gave an MIC80 (Candida albicans [34]) of 0.6 µM, an MIC80 (Nakaseomyces glabratus [35]) of 0.3 µM (≈ 0.277 µg/mL) and an MIC80 (Cryptococcus neoformans [36]) of 1.3 µM. For the same compound, the MIC80 (Clavispora lusitaniae) was 0.6 µM (≈ 0.554 µg/mL), the MFC (Aspergillus flavus [37]) was 10 µM (≈ 9.24 µg/mL) and the MIC80 (Aspergillus flavus [37]) was 5 µM (≈ 4.62 µg/mL). For the same compound, the MIC80 (Candida parapsilosis [38]) was 1.3 µM (≈ 1.2 µg/mL) and the “MFC<=99.9” value (Aspergillus fumigatus [39]) was 2.5 µM (≈ 2.31 µg/mL).
